Results: ChEMBL document CHEMBL1201862, “PubChem BioAssay data set” (2004)
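A five-concentration, 48-hour dose response in 96-well plates underlies each endpoint, interpolated linearly between surrounding concentrations. At the GI50, growth is halved.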 Active and inactive are the calls of the source. No stated cut-off is given here; in the data, active = GI50 up to about 1.1 µM and inactive = higher.

Key:
Experiment in all cases: NCI anticancer screen, dose series, 48 h
HCT-15 = system: HCT-15
HT-29 = system: HT-29
HCC 2998 = system: HCC 2998
T47D = system: T47D
A549 = system: A549
NCI-H23 = system: NCI-H23
TK-10 = system: TK-10
NCI-H460 = system: NCI-H460
HOP-62 = system: HOP-62
K562 = system: K562
A498 = system: A498
SK-MEL-2 = system: SK-MEL-2
NCI-H226 = system: NCI-H226
NCI-H522 = system: NCI-H522
OVCAR-3 = system: OVCAR-3
EKVX = system: EKVX
NCI/ADR-RES = system: NCI/ADR-RES
Malme-3M = system: Malme-3M
RXF 393 = system: RXF 393
HL-60 = system: HL-60
OVCAR-8 = system: OVCAR-8
CCRF-CEM = system: CCRF-CEM
MDA-MB-231 = system: MDA-MB-231
Hs-578T = system: Hs-578T
SNB-19 = system: SNB-19
SN12C = system: SN12C
MCF7 = system: MCF7
ACHN = system: ACHN
SNB-75 = system: SNB-75
MOLT-4 = system: MOLT-4
KM12 = system: KM12
SF-295 = system: SF-295
MDA-MB-435 = system: MDA-MB-435
MDA-N = system: MDA-N
SK-MEL-5 = system: SK-MEL-5
IGROV-1 = system: IGROV-1
PC-3 = system: PC-3
UACC-62 = system: UACC-62
HOP-92 = system: HOP-92
LOX IMVI = system: LOX IMVI
SF-268 = system: SF-268
786-0 = system: 786-0
U-251 = system: U-251
CAKI-1 = system: CAKI-1
SK-MEL-28 = system: SK-MEL-28
HCT-116 = system: HCT-116
UACC-257 = system: UACC-257
COLO 205 = system: COLO 205
DU-145 = system: DU-145
OVCAR-4 = system: OVCAR-4
SR = system: SR
M14 = system: M14
SF-539 = system: SF-539
SW-620 = system: SW-620
OVCAR-5 = system: OVCAR-5
SK-OV-3 = system: SK-OV-3
UO-31 = system: UO-31
RPMI-8226 = system: RPMI-8226

## C=C(C(N)=O)c1ccc([N+](=O)[O-])o1
HCT-15
  GI50: 9.02 µM
HT-29
  GI50: 11.9 µM (inactive)
HCC 2998
  GI50: 16.7 µM (inactive)
T47D
  GI50: 20.5 µM (inactive)
A549
  GI50: 15.1 µM (inactive)
NCI-H23
  GI50: 5.02 µM (inactive)
TK-10
  GI50: 14.1 µM (inactive)
NCI-H460
  GI50: 19.9 µM (inactive)
HOP-62
  GI50: 22.8 µM (inactive)
K562
  GI50: 3.61 µM (inactive)
A498
  GI50: 12.6 µM (inactive)
SK-MEL-2
  GI50: 5.93 µM (inactive)
NCI-H226
  GI50: 20.3 µM (inactive)
NCI-H522
  GI50: 1.97 µM (inactive)
OVCAR-3
  GI50: 8.36 µM (inactive)
EKVX
  GI50: 18.1 µM (inactive)
NCI/ADR-RES
  GI50: 15.5 µM (inactive)
Malme-3M
  GI50: 2.2 µM (inactive)
RXF 393
  GI50: 3.08 µM (inactive)
HL-60
  GI50: 3.16 µM (inactive)
OVCAR-8
  GI50: 2.9 µM (inactive)
CCRF-CEM
  GI50: 3.22 µM (inactive)
MDA-MB-231
  GI50: 13.8 µM (inactive)
Hs-578T
  GI50: 36.4 µM (inactive)
SNB-19
  GI50: 37.1 µM (inactive)
SN12C
  GI50: 10.3 µM (inactive)
MCF7
  GI50: 6.11 µM (inactive)
ACHN
  GI50: 2.89 µM (inactive)
SNB-75
  GI50: 9.46 µM (inactive)
MOLT-4
  GI50: 3.84 µM (inactive)
KM12
  GI50: 16.7 µM (inactive)
SF-295
  GI50: 42 µM (inactive)
MDA-MB-435
  GI50: 2.56 µM (inactive)
MDA-N
  GI50: 3 µM (inactive)
SK-MEL-5
  GI50: 5.74 µM (inactive)
IGROV-1
  GI50: 10.6 µM (inactive)
PC-3
  GI50: 30.7 µM (inactive)
UACC-62
  GI50: 7.03 µM (inactive)
HOP-92
  GI50: 6.49 µM (inactive)
LOX IMVI
  GI50: 10.1 µM (inactive)
SF-268
  GI50: 8.36 µM (inactive)
786-0
  GI50: 11.2 µM (inactive)
U-251
  GI50: 15.6 µM (inactive)
CAKI-1
  GI50: 3.4 µM (inactive)
SK-MEL-28
  GI50: 2.67 µM (inactive)
HCT-116
  GI50: 3.97 µM (inactive)
UACC-257
  GI50: 8.51 µM (inactive)
COLO 205
  GI50: 3.31 µM (inactive)
DU-145
  GI50: 11.4 µM (inactive)
OVCAR-4
  GI50: 11.6 µM (inactive)
SR
  GI50: 9.46 µM (inactive)
M14
  GI50: 2.82 µM (inactive)
SF-539
  GI50: 12.6 µM (inactive)
SW-620
  GI50: 5.81 µM (inactive)
OVCAR-5
  GI50: 18.7 µM (inactive)
SK-OV-3
  GI50: 30.8 µM (inactive)

## O=C1C(c2ccccc2)=[N+]([O-])c2ccccc21
HCT-15
  GI50: 19.7 µM
HT-29
  GI50: 20.2 µM (inactive)
HCC 2998
  GI50: 20 µM (inactive)
T47D
  GI50: 1.97 µM (inactive)
A549
  GI50: 19.9 µM (inactive)
NCI-H23
  GI50: 19.4 µM (inactive)
TK-10
  GI50: 20 µM (inactive)
NCI-H460
  GI50: 16.5 µM (inactive)
HOP-62
  GI50: 18.7 µM (inactive)
K562
  GI50: 3.15 µM (inactive)
A498
  GI50: 17.9 µM (inactive)
SK-MEL-2
  GI50: 14.7 µM (inactive)
NCI-H226
  GI50: 17.1 µM (inactive)
OVCAR-3
  GI50: 13.6 µM (inactive)
UO-31
  GI50: 16.2 µM (inactive)
EKVX
  GI50: 15.1 µM (inactive)
NCI/ADR-RES
  GI50: 17.7 µM (inactive)
Malme-3M
  GI50: 17.4 µM (inactive)
HL-60
  GI50: 14.9 µM (inactive)
OVCAR-8
  GI50: 18.6 µM (inactive)
CCRF-CEM
  GI50: 4.83 µM (inactive)
MDA-MB-231
  GI50: 11.7 µM (inactive)
Hs-578T
  GI50: 29.8 µM (inactive)
SNB-19
  GI50: 19 µM (inactive)
SN12C
  GI50: 17.3 µM (inactive)
MCF7
  GI50: 1.64 µM (inactive)
ACHN
  GI50: 19.2 µM (inactive)
SNB-75
  GI50: 17 µM (inactive)
MOLT-4
  GI50: 21.6 µM (inactive)
KM12
  GI50: 19.8 µM (inactive)
SF-295
  GI50: 17.4 µM (inactive)
RPMI-8226
  GI50: 14.9 µM (inactive)
MDA-MB-435
  GI50: 3.37 µM (inactive)
MDA-N
  GI50: 3.29 µM (inactive)
SK-MEL-5
  GI50: 11.1 µM (inactive)
PC-3
  GI50: 11.6 µM (inactive)
UACC-62
  GI50: 15.5 µM (inactive)
HOP-92
  GI50: 6.79 µM (inactive)
LOX IMVI
  GI50: 3.35 µM (inactive)
SF-268
  GI50: 14.1 µM (inactive)
786-0
  GI50: 17.7 µM (inactive)
U-251
  GI50: 10.5 µM (inactive)
SK-MEL-28
  GI50: 17.1 µM (inactive)
HCT-116
  GI50: 5.78 µM (inactive)
UACC-257
  GI50: 13.3 µM (inactive)
COLO 205
  GI50: 16.2 µM (inactive)
DU-145
  GI50: 15.7 µM (inactive)
OVCAR-4
  GI50: 4.04 µM (inactive)
SR
  GI50: 5.6 µM (inactive)
M14
  GI50: 12.4 µM (inactive)
SF-539
  GI50: 18.8 µM (inactive)
SW-620
  GI50: 5.83 µM (inactive)
OVCAR-5
  GI50: 22.4 µM (inactive)
SK-OV-3
  GI50: 17.6 µM (inactive)
